Patent US10925856B2, “Methods and compositions involving bucindolol for the treatment of atrial fibrillation” (priority 2018, dated 2021)

Assay: Systolic blood pressure and heart rate by scheduled visit
Type: in vivo, human
Description: Block is defined as the first of any of the following: 1) 3rd degree heart block (complete heart block); 2) any 2nd degree heart block with the presence of symptoms attributable to, and temporally correlated with the occurrence of heart block which include any of the following: Near-fainting or fainting (syncope)/Dizziness; Weakness or Fatigue; Shortness of breath; Chest pain; or 3) 2nd or 3rd degree heart block requiring implantation of a permanent pacemaker (with or without defibrillator). • Data source: • CVEVENT and AE eCRF forms. • Overall incidence and severity of treatment-emergent AEs/SAEs over time during the Total Study Period. Also events associated with device implantation. […] The AEs of special interest will be tabulated according to the following characteristics. • Development of treatment-emergent neoplastic conditions. • Progression or worsening of pre-study neoplastic conditions. • Progression or worsening of treatment-emergent neoplastic conditions. • Data source: • AE, NEOPLHX and NEOPLAS eCRF forms. • Clinical Chemistry and Hematology. • Visit collection: screen, start of follow-up Week 0 (protocol versions 1 and 2), Week 4 (protocol versions 3 and 4), Week 12 (protocol versions 3 and 4), Week 24, every 24 weeks during extension, end of treatment and end of study. […] Randomization Visit measurement prior to first dose will serve as the baseline. Will be analyzed at Week 0, 4, 12 and 24 visits as well as end of treatment and end of study. • Change from baseline to each analysis visit will be calculated and analyzed with descriptive statistics. • The numbers and percentages of patients with QTc increase from baseline exceeding 60 ms at any time point during the study. • Data source: • ECG eCRF form. • Vital signs and weight (data source: VITALS eCRF form). • Measured at every in-clinic visit. Randomization Visit measurement prior to first dose will serve as the baseline. Will be analyzed at Week 0, 4, 12 and 24 visits as well as end of treatment and end of study. • Change from baseline to each analysis visit will be calculated and analyzed with descriptive statistics. • Data source: • VITALS eCRF form. • Proportion of patients attaining target study drug dose during the Drug Titration Period. Will be calculated for all patients, those receiving β-blocker therapy prior to randomization and those not previously receiving β-blocker therapy. • Data Sources: • VISREC and DRUGLOG eCRF forms.

SMILES: CC(C)(Cc1c[nH]c2ccccc12)NCC(O)COc1ccccc1C#N (stereo not shown) [bucindolol, 2-(3-(1-(1H-indol-3-yl)-2-methylpropan-2-ylamino)-2-hydroxypropoxy)benzonitrile]
- Systolic Blood Pressure, Baseline Mean ± SEM (Baseline): 124.7 ± 1.3 mmHg
- Heart Rate, Baseline Mean ± SEM (Baseline, by ECG): 76.5 ± 1.5 bpm
- Systolic Blood Pressure, Mean ± SEM (Week 4 Change from Baseline): −0.3 ± 1.5 mmHg
- Heart Rate, Mean ± SEM (Week 4 Change from Baseline, by ECG): 0.1 ± 1.6 bpm
- Systolic Blood Pressure, Mean ± SEM (Week 12 Change from Baseline): −0.5 ± 1.8 mmHg
- Heart Rate, Mean ± SEM (Week 12 Change from Baseline, by ECG): −1.5 ± 1.8 bpm
- Systolic Blood Pressure, Mean ± SEM (Week 24 Change from Baseline): −1.1 ± 1.5 mmHg
- Heart Rate, Mean ± SEM (Week 24 Change from Baseline, by ECG): 0.1 ± 2.3 bpm

SMILES: COCCc1ccc(OCC(O)CNC(C)C)cc1 (stereo not shown) [metoprolol, metoprolol succinate, reference compound]
- Heart rate reduction (4, 12 and 24 weeks): greater heart rate reduction
- Heart Rate, Baseline Mean ± SEM (in vivo): 76.0 ± 1.5 bpm
- Heart Rate, Baseline Min, Max (in vivo): 43.0, 119
- Systolic Blood Pressure, Baseline Mean ± SEM (in vivo): 121.8 ± 1.4 mmHg
- Systolic Blood Pressure, Baseline Min, Max (in vivo): 90.0, 149
